Literature values in PMC5664587 (Fluids and Barriers of the CNS, 2017).

Settings: brain homogenate

CC(C)NCC(O)COc1cccc2ccccc12 (stereo not shown) [propranolol]
fu,brain, previously reported: 0.029
